Reference: patent US20210127671A1, “HYPERSENSITIVE RESPONSE ELICITOR PEPTIDES AND USE THEREOF” (priority 2015, published 2021)
Peptide text beside a SMILES is read from it.

Tests used:
[1] = Stability against chemical degradation in water or pH buffers at 50° C. (HPLC); conditions: for precipitation during stability test: 0.2% AI, 0.25% Proxel GXL, 50 mM buffers; for precipitation during stability test / stability after 14 days: 50° C.; for solution stability (in words): aqueous solution; for % remaining after 14 days incubation: 50 mM TES, pH 8.0, 50° C.; for stability after 14 days: 50 mM EDTA, pH 8 (FIG. 24)
Procedure: Briefly, the stability and resistance to chemical degradation of peptides can be assessed as follows using peptide samples having an initial purity of at least about 80%, at least about 82%, at least about 84%, at least about 86%, at least about 88%, at least about 90%, at least about 92%, at least about 94%, at least about 96%, or at least about 98%. For water stability, the peptide is dissolved directly in de-ionized water. For chemical degradation tests, the peptide is dissolved in an aqueous solution containing 50 mM pH buffer and 0.25% Proxel GXL. Exemplary pH buffers include, without limitation: (i) Citrate pH 5.6; (ii) MES pH 6.2; (iii) MOPS pH 6.5; (iv) imidazole pH 7.0; (v) Citrate pH 7.2; (vi) EDDS, pH 7.3; (vii) EDTA pH 8.0; (viii) sodium phosphate pH 8.0; or (ix) TES pH 8.0. Peptides are first dissolved in the aqueous solution at a concentration of 0.5 mg/ml. […] An initial sample of the peptide is removed, diluted 10× with water, and analyzed by reverse-phase HPLC. Briefly, 20 μl of the sample is injected into the solvent flow of an HPLC instrument and analyzed on a C18 HPLC column (YMC ProPack C18, YMC, Japan, or C18 Stablebond, Agilent Technologies, USA) using either a triethylamine phosphate in water/acetonitrile gradient or a 0.1% TFA in water/0.1% TFA in acetonitrile gradient to separate different peptide species. Eluting peptides are monitored by UV absorbance at 218 nm and quantified based on the area under the peak. The area under the peak for the initial peptide sample is treated as the standard for relative quantification in subsequent runs. At regular intervals (e.g., 1, 3, 7, 10, 14, 17, and 21 days), each peptide sample is surveyed and analyzed by HPLC as described above.
Stability against chemical degradation was assessed in various pH buffers by creating 0.2% AI solutions of pure, chemically synthesized peptide in deionized water, 0.25% weight to volume of Proxel® GXL (biocide), and 50 millimolar (mM) of eight buffers (separately) as follows: MES pH 5.6, MOPS pH 6.5, Citrate pH 7.2, EDDS pH 7.3, EDTA pH 8, Phosphate pH 8, Imidazole pH 8, and TES pH 8.

[2] = 0.2% AI in deionized water, 48 hours at room temperature

Structure (SMILES): CC[C@H](C)[C@H](NC(=O)CNC(=O)[C@H](CCC(=O)O)NC(=O)[C@@H](N)CC(N)=O)C(=O)N[C@@H](CO)C(=O)N[C@@H](CCC(=O)O)C(=O)N[C@@H](CCCCN)C(=O)N[C@@H](CCC(=O)O)C(=O)N[C@@H](CC(C)C)C(=O)N[C@@H](CC(=O)O)C(=O)N[C@@H](CCC(=O)O)C(=O)N[C@@H](CC(C)C)C(=O)N[C@@H](CC(C)C)C(=O)N[C@H](C(=O)N[C@@H](CCC(=O)O)C(=O)N[C@@H](CC(C)C)C(=O)N[C@H](C(=O)N[C@@H](CCC(=O)O)C(=O)N[C@@H](C)C(=O)N[C@@H](CC(C)C)C(=O)N[C@@H](CC(C)C)C(=O)N[C@@H](CCC(N)=O)C(=O)N[C@@H](CCC(N)=O)C(=O)O)[C@@H](C)CC)[C@@H](C)O [P1-2E,8E,11E,15E,18E] (H-NEGISEKELDELLTELIEALLQQ-OH; N-terminus and C-terminus assumed)
- precipitation during stability test [1]: remained in solution
- solution stability (in words) [1]: improved solubility and stability when compared with P1
- solubility [2]: soluble

Structure (SMILES): CC[C@H](C)[C@H](NC(=O)CNC(=O)[C@H](CCC(N)=O)NC(=O)[C@@H](N)CC(N)=O)C(=O)N[C@@H](CO)C(=O)N[C@@H](CCC(=O)O)C(=O)N[C@@H](CCCCN)C(=O)N[C@@H](CCC(N)=O)C(=O)N[C@@H](CC(C)C)C(=O)N[C@@H](CC(=O)O)C(=O)N[C@@H](CCC(N)=O)C(=O)N[C@@H](CC(C)C)C(=O)N[C@@H](CC(C)C)C(=O)N[C@H](C(=O)N[C@@H](CCC(N)=O)C(=O)N[C@@H](CC(C)C)C(=O)N[C@H](C(=O)N[C@@H](C)C(=O)N[C@@H](C)C(=O)N[C@@H](CC(C)C)C(=O)N[C@@H](CC(C)C)C(=O)N[C@@H](CCC(N)=O)C(=O)N[C@@H](CCC(N)=O)C(=O)O)[C@@H](C)CC)[C@@H](C)O [Peptide P1-18A] (H-NQGISEKQLDQLLTQLIAALLQQ-OH; N-terminus and C-terminus assumed)
- % remaining after 14 days incubation [1]: 47%

Structure (SMILES): CC[C@H](C)[C@H](NC(=O)CNC(=O)[C@H](CCC(N)=O)NC(=O)[C@@H](N)CC(N)=O)C(=O)N[C@@H](CO)C(=O)N[C@@H](CCC(=O)O)C(=O)N[C@@H](CCCCN)C(=O)N[C@@H](CCC(N)=O)C(=O)N[C@@H](CC(C)C)C(=O)N[C@@H](CC(=O)O)C(=O)N[C@@H](CCC(N)=O)C(=O)N[C@@H](CC(C)C)C(=O)N[C@@H](CC(C)C)C(=O)N[C@H](C(=O)N[C@@H](CCC(N)=O)C(=O)N[C@@H](CC(C)C)C(=O)N[C@H](C(=O)N[C@H](C(=O)N[C@@H](C)C(=O)N[C@@H](CC(C)C)C(=O)N[C@@H](CC(C)C)C(=O)N[C@@H](CCC(N)=O)C(=O)N[C@@H](CCC(N)=O)C(=O)O)[C@@H](C)O)[C@@H](C)CC)[C@@H](C)O [Peptide P1-18T] (H-NQGISEKQLDQLLTQLITALLQQ-OH; N-terminus and C-terminus assumed)
- % remaining after 14 days incubation [1]: 71%

Structure (SMILES): CC[C@H](C)[C@H](NC(=O)CNC(=O)[C@H](CCC(N)=O)NC(=O)[C@@H](N)CO)C(=O)N[C@@H](CO)C(=O)N[C@@H](CCC(=O)O)C(=O)N[C@@H](CCCCN)C(=O)N[C@@H](CCC(N)=O)C(=O)N[C@@H](CC(C)C)C(=O)N[C@@H](CC(=O)O)C(=O)N[C@@H](CCC(N)=O)C(=O)N[C@@H](CC(C)C)C(=O)N[C@@H](CC(C)C)C(=O)N[C@@H](CO)C(=O)N[C@@H](CCC(N)=O)C(=O)N[C@@H](CC(C)C)C(=O)N[C@H](C(=O)N[C@@H](CCC(N)=O)C(=O)N[C@@H](C)C(=O)N[C@@H](CC(C)C)C(=O)N[C@@H](CC(C)C)C(=O)N[C@@H](CCC(N)=O)C(=O)N1CCC[C@H]1C(=O)O)[C@@H](C)CC [Peptide P4-14S] (H-SQGISEKQLDQLLSQLIQALLQP-OH; N-terminus and C-terminus assumed)
- precipitation during stability test [1]: remained in solution
- solution stability (in words) [1]: highly stable peptide
- solubility [2]: completely soluble

Structure (SMILES): CC[C@H](C)[C@H](NC(=O)[C@@H](NC(=O)[C@H](CCC(N)=O)NC(=O)[C@H](CCCNC(=N)N)NC(=O)[C@H](CC(=O)O)NC(=O)[C@@H](NC(=O)[C@@H]1CCCN1C(=O)[C@H](CCC(N)=O)NC(=O)[C@@H](N)CCC(N)=O)[C@@H](C)CC)[C@@H](C)O)C(=O)N[C@@H](CCC(=O)O)C(=O)N[C@@H](CCC(N)=O)C(=O)N[C@@H](CCSC)C(=O)N[C@@H](C)C(=O)N[C@@H](CCC(N)=O)C(=O)N[C@@H](CC(C)C)C(=O)N[C@@H](CC(C)C)C(=O)N[C@@H](C)C(=O)N[C@@H](CCC(N)=O)C(=O)N[C@@H](CC(C)C)C(=O)N[C@@H](CC(C)C)C(=O)N[C@@H](CCCCN)C(=O)N[C@@H](CO)C(=O)N[C@@H](CC(C)C)C(=O)N[C@@H](CC(C)C)C(=O)O [Peptide P18-1] (H-QQPIDRQTIEQMAQLLAQLLKSLL-OH)
- stability after 14 days [1]: > 90%

Structure (SMILES): CC[C@H](C)[C@H](NC(=O)[C@@H](NC(=O)[C@H](CCC(N)=O)NC(=O)[C@H](CCCNC(=N)N)NC(=O)[C@@H](N)CC(=O)O)[C@@H](C)O)C(=O)N[C@@H](CCC(=O)O)C(=O)N[C@@H](CCC(N)=O)C(=O)N[C@@H](CC(C)C)C(=O)N[C@@H](C)C(=O)N[C@@H](CCC(N)=O)C(=O)N[C@@H](CC(C)C)C(=O)N[C@@H](CC(C)C)C(=O)N[C@@H](C)C(=O)N[C@@H](CCC(N)=O)C(=O)N[C@@H](CC(C)C)C(=O)N[C@@H](CC(C)C)C(=O)N[C@@H](CCCCN)C(=O)N[C@@H](CO)C(=O)N[C@@H](CC(C)C)C(=O)N[C@@H](CC(C)C)C(=O)N[C@@H](CO)C(=O)N1CCC[C@H]1C(=O)O [Peptide P18-4] (H-DRQTIEQLAQLLAQLLKSLLSP-OH)
- stability after 14 days [1]: 60%

Structure (SMILES): CC[C@H](C)[C@H](N)C(=O)N[C@H](C(=O)N1CCC[C@H]1C(=O)N[C@@H](CC(=O)O)C(=O)NCC(=O)N[C@@H](CCC(N)=O)C(=O)NCC(=O)NCC(=O)NCC(=O)N[C@@H](CCC(N)=O)C(=O)N[C@H](C(=O)NCC(=O)N[C@@H](CC(=O)O)C(=O)N[C@@H](CC(N)=O)C(=O)N1CCC[C@H]1C(=O)N[C@@H](CC(C)C)C(=O)N[C@@H](CC(C)C)C(=O)N[C@@H](CCCCN)C(=O)N[C@@H](C)C(=O)N[C@@H](CC(C)C)C(=O)N[C@@H](CC(C)C)C(=O)N[C@@H](CCCCN)C(=O)N[C@@H](CC(C)C)C(=O)N[C@H](C(=O)N[C@@H](C)C(=O)O)[C@@H](C)CC)[C@@H](C)CC)[C@@H](C)O [Peptide P19-20L] (H-ITPDGQGGGQIGDNPLLKALLKLIA-OH; N-terminus and C-terminus assumed)
- stability compared with P19 (in words) ([1]; 50 mM citrate pH 7.2 or 50 mM TES, pH 8.0): modest increase in stability

Structure (SMILES): CC[C@H](C)[C@H](N)C(=O)N[C@H](C(=O)N1CCC[C@H]1C(=O)N[C@@H](CC(=O)O)C(=O)NCC(=O)N[C@@H](CCC(N)=O)C(=O)NCC(=O)NCC(=O)NCC(=O)N[C@@H](CCC(N)=O)C(=O)N[C@H](C(=O)NCC(=O)N[C@@H](CC(=O)O)C(=O)N[C@@H](CC(N)=O)C(=O)N1CCC[C@H]1C(=O)N[C@@H](CC(C)C)C(=O)N[C@@H](CC(C)C)C(=O)N[C@@H](CCCCN)C(=O)N[C@@H](C)C(=O)N[C@@H](CCSC)C(=O)N[C@@H](CC(C)C)C(=O)N[C@@H](CCCCN)C(=O)N[C@@H](CC(C)C)C(=O)N[C@H](C(=O)N[C@@H](C)C(=O)O)[C@@H](C)CC)[C@@H](C)CC)[C@@H](C)O [Peptide P19] (H-ITPDGQGGGQIGDNPLLKAMLKLIA-OH; N-terminus and C-terminus assumed)
- remaining at 336 h ([1]; buffer or solvent): 52%
